In one assay the target is T1, LAMTOR1 (Mus musculus, UniProt Q9CQ22, L22A).
T1 construct: MYC-LAMTOR1^L22A
Kind of assay: DARTS in lysate of transfected HEK293 cells, […] ACA. Format: cell-based.

Assay [1] addresses LAMTOR1 (late endosomal/lysosomal adaptor, MAPK and MTOR activator 1) (Mus musculus, UniProt Q9CQ22). Kind of assay: dose-dependent DARTS western blot in 3T3-L1 lysate; CETSA and isothermal dose-response CETSA. Type of assay: biochemical. On the technique in general: Immunoblotting shows a protein as a band on a membrane.

T1 sequence (Q9CQ22 2-161 L22A): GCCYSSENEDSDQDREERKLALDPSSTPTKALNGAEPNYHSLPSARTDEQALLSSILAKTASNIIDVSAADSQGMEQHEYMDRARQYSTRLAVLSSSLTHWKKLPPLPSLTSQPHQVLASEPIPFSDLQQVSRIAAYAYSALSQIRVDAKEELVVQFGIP
Chain of LAMTOR1 (late endosomal/lysosomal adaptor, MAPK and MTOR activator 1) (Q9CQ22 2-161): as the sequence (Q9CQ22 2-161 L22A) above, with A21L counted along it

In general, EC50 refers to the concentration that produces a half-maximal response. A higher EC50 goes with a need for much substance. Take `COc1ccc(-c2cc(=O)c3c(O)cc(O)cc3o2)cc1` [ACA, 5,7-dihydroxy-4’methoxyflavone]: on LAMTOR1, the “% increase in stability” value is reported as 35.7 % increase in stability. The half-maximal effective concentration (EC50) in assay [1] was about 44 µM.

The record behind these values is PMC12758200, “Inhibition of lysosomal LAMTOR1 increases autophagy by suppressing the MTORC1 pathway to ameliorate lipid accumulations in MAFLD” (Autophagy, 2025).
